Measurements as given in patent US8735446B2, “Vanillin acetals and sensory stimulant composition containing the same” (Takasago International Corporation, priority 2005, dated 2014).

Columns and labels:
ten expert panelists = assay: Sensory Evaluation 1: oral evaluation of 10 ppm aqueous solutions; assay type: in vivo, human; set-up: key to Instantaneous sensation: ⊚: very fast; ◯: fast; Δ: is somewhat slow; x: slow; conditions: for Instantaneous sensation / Intensity: oral evaluation, 10 ppm aqueous solution, warming sensation and pungent taste, average of ten panelists; for Intensity: scale 5 very strong, 4 strong, 3 weak, 2 very weak, 1 not able to feel
Experimental: Compound A and Compound C obtained in Example 1 and Example 3, respectively, were subjected to oral evaluation using 10 ppm aqueous solutions of them by ten expert panelists having 5 or more year experience, and an instantaneous sensation and an intensity of warming sensation and pungent taste were evaluated on the basis of the following evaluation criteria. On the sensory evaluation, 4-(l-methoxymethyl)-2-(3′-methoxy-4′-hydroxyphenyl)-1,3-dioxolan (Comparative compound A: the compound described in JP-A-8-225564) was used as a comparative compound. The evaluation results in the table show the average value of ten panelists.

skin = assay: warm sensation and stimulating effect on the skin; assay type: in vivo, human

SMILES	pungent and warming effect in the mouth (ten expert panelists)	Instantaneous sensation (ten expert panelists)	Intensity (ten expert panelists)	warm sensation and stimulating effect on the skin (skin)
CCCCC1COC(c2ccc(O)c(OC)c2)O1 (stereo not drawn) [Compound A, vanillin-1,2-hexylene glycol acetal]	strong pungent and warming effect in the mouth	⊚	4.5	strong warm sensation and stimulating effect on the skin
CCCCOCC1COC(c2ccc(O)c(OC)c2)O1 (stereo not drawn) [Compound C, vanillin-1-butoxyglycerol acetal]	strong pungent and warming effect in the mouth	⊚	4.2	strong warm sensation and stimulating effect on the skin
COCC1COC(c2ccc(O)c(OC)c2)O1 (stereo not drawn) [Comparative compound A, 4-(l-methoxymethyl)-2-(3′-methoxy-4′-hydroxyphenyl)-1,3-dioxolan, reference compound]	strong pungent and warming effect in the mouth	Δ	2.8	strong warm sensation and stimulating effect on the skin
